ChEMBL document CHEMBL5344425, “Discovery of 5-(Pyrimidin-2-ylamino)-1H-indole-2-carboxamide Derivatives as Nur77 Modulators with Selective and Potent Activity Against Triple-Negative Breast Cancer” (J Med Chem, 2023)
The source made the active and inactive calls. No cut-off for these calls is given here.

Experiments:
[1] = tested on: MDA-MB-231; assay: Induction of apoptosis in human MDA-MB-231 cells assessed as PARP cleavage at 2 uM by western blot analysis; type: functional, cell-based; conditions: time 1-5 hrs, TDE = time-dependent effect
[2] = tested on: MDA-MB-231; assay: Induction of apoptosis in human MDA-MB-231 cells transfected with Nur77 siRNA assessed as early apoptotic cells at 1 uM measured after 6 hrs by AnnexinV-FITC/PI staining based flow cytometry (reference value: 1.88%); type: functional
[3] = tested on: T47D; assay: Antiproliferative activity against human T47D cells assessed as inhibition of cell growth measured after 24 hrs by MTT assay; type: functional, cell-based
[4] = molecular target: Nuclear receptor subfamily 4immunitygroup A member 1 (Homo sapiens, UniProt P22736); assay: Modulation of Nur77 in human MDA-MB-231 cells assessed as increase in TP53 phosphorylation at Ser392 residue at 0.31 to 5 uM measured after 6 hrs by western blot analysis; type: cell-based; conditions: dose 0.31-5 µM
[5] = tested on: MDA-MB-231; assay: Induction of apoptosis in human MDA-MB-231 cells assessed as PARP cleavage at 2.5 uM pretreated with protein synthesis inhibitor, cycloheximide for 4 hrs followed by compound addition and measured after 6 hrs by western blot analysis; type: functional, cell-based
[6] = tested on: HeLa; assay: Antiproliferative activity against human HeLa cells assessed as inhibition of cell growth measured after 24 hrs by MTT assay; type: functional, cell-based
[7] = Toxicity in BALB/c mouse xenografted with human MDA-MB-231 cells assessed as morphological changes in spleen at 10 mg/kg, ip qd for 16 days by Hematoxylin-Eosin staining based analysis; type: organism-based; conditions: in vivo, 384 h, time 16 day
[8] = tested on: MDA-MB-231; assay: Antitumor activity against human MDA-MB-231 cells xenografted in BALB/c mouse assessed as tumor weight at 10 mg/kg, ip qd for 16 days (reference value: 1.17 gms); type: functional; conditions: time 16 day
[9] = tested on: T47D; assay: Antiproliferative activity against human T47D cells transfected with Nur77 siRNA assessed as inhibition of cell growth measured after 24 hrs by MTT assay; type: functional, cell-based
[10] = tested on: Bel-7402; assay: Antiproliferative activity against human Bel-7402 cells assessed as inhibition of cell growth measured after 24 hrs by MTT assay; type: functional, cell-based; conditions: Bel-7402, 24 h
[11] = tested on: MDA-MB-231; assay: Induction of apoptosis in human MDA-MB-231 cells assessed as proportion of late apoptotic cells at 0.32 uM measured after 5 hrs by AnnexinV-FITC/PI staining based flow cytometry (reference value: 2.55%); type: functional
[12] = tested on: MDA-MB-231; assay: Induction of apoptosis in human MDA-MB-231 cells assessed as PARP cleavage at 2.5 uM pretreated with PI3K and autophagy inhibitor, Wortmannin for 4 hrs followed by compound addition and measured after 6 hrs by western blot analysis; type: functional, cell-based
[13] = molecular target: T1, Peroxisome proliferator-activated receptor gamma (Homo sapiens) (UniProt P37231); assay: Antagonist activity at PPARgamma ligand binding domain (unknown origin) transfected in HEK293T cells cotransfected with pG5-Luc assessed as inhibition of receptor transcriptional activity at 2 uM measured after 12 hrs by luciferase reporter gene assay; type: cell-based
T1 sequence (whole entry): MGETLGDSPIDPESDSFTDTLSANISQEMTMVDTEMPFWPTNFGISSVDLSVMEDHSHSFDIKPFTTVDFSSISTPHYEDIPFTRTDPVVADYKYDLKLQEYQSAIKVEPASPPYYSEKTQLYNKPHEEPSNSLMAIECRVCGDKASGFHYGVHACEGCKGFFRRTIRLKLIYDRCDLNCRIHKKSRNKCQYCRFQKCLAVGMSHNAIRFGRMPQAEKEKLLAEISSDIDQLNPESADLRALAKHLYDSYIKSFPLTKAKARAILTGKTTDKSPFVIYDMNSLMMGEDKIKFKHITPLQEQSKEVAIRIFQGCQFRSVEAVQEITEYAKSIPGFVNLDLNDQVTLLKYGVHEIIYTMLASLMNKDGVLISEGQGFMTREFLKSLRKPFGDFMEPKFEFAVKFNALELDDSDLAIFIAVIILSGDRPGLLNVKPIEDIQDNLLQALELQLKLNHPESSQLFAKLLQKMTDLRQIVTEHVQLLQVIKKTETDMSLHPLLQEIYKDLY

[14] = tested on: BT-549; assay: Antiproliferative activity against human BT-549 cells assessed as inhibition of cell growth measured after 24 hrs by MTT assay; type: functional, cell-based; conditions: BT-549, 24 h
[15] = tested on: MDA-MB-231; assay: Induction of apoptosis in human MDA-MB-231 cells transfected with Nur77 siRNA assessed as early apoptotic cells at 2 uM measured after 6 hrs by AnnexinV-FITC/PI staining based flow cytometry (reference value: 1.88%); type: functional
[16] = tested on: MDA-MB-231; assay: Induction of apoptosis in human MDA-MB-231 cells assessed as proportion of late apoptotic cells at 0.63 uM measured after 5 hrs by AnnexinV-FITC/PI staining based flow cytometry (reference value: 2.55%); type: functional
[17] = tested on: MDA-MB-231; assay: Induction of apoptosis in human MDA-MB-231 cells transfected with Nur77 siRNA assessed as late apoptotic cells at 2 uM measured after 6 hrs by AnnexinV-FITC/PI staining based flow cytometry (reference value: 3.97%); type: functional
[18] = tested on: MDA-MB-231; assay: Antitumor activity against human MDA-MB-231 cells xenografted in BALB/c mouse assessed as inhibition of tumor growth at 10 mg/kg, ip qd for 16 days; type: functional; conditions: MDA-MB-231, 384 h, time 16 day, read-out: TGI
[19] = tested on: MDA-MB-231; assay: Induction of apoptosis in human MDA-MB-231 cells transfected with Myc-Nur77 R184A mutant assessed as PARP cleavage at 2 to 5 uM measured after 6 hrs by western blot analysis; type: functional, cell-based; conditions: dose 2-5 µM
[20] = molecular target: T2, Retinoic acid receptor RXR-alpha (Homo sapiens) (UniProt P19793); assay: Antagonist activity at RXRalpha (unknown origin) transfected in HEK293T cells cotransfected with pG5-Luc assessed as inhibition of receptor transcriptional activity at 2 uM measured after 12 hrs by luciferase reporter gene assay; type: cell-based
T2 sequence (whole entry): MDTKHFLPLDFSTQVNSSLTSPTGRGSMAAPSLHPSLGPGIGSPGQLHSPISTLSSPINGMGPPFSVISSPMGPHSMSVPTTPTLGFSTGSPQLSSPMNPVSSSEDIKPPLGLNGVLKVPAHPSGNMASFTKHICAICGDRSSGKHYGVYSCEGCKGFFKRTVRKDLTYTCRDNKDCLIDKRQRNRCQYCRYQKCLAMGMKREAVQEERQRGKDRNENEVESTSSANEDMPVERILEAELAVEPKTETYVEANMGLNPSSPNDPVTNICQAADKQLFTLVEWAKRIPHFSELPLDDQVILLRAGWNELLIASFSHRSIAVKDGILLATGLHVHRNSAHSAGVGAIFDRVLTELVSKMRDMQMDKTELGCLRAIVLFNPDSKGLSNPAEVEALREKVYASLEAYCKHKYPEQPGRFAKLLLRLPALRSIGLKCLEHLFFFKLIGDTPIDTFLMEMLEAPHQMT

[21] = tested on: HT-29; assay: Antiproliferative activity against human HT-29 cells assessed as inhibition of cell growth measured after 24 hrs by MTT assay; type: functional, cell-based; conditions: HT-29, 24 h
[22] = tested on: MDA-MB-231; assay: Induction of apoptosis in human MDA-MB-231 cells transfected with Nur77 siRNA assessed as PARP cleavage at 0.5 to 2 uM measured after 6 hrs by western blot analysis; type: functional, cell-based; conditions: dose 0.5-2 µM

Chain of Nuclear receptor subfamily 4immunitygroup A member 1 (P22736 whole entry): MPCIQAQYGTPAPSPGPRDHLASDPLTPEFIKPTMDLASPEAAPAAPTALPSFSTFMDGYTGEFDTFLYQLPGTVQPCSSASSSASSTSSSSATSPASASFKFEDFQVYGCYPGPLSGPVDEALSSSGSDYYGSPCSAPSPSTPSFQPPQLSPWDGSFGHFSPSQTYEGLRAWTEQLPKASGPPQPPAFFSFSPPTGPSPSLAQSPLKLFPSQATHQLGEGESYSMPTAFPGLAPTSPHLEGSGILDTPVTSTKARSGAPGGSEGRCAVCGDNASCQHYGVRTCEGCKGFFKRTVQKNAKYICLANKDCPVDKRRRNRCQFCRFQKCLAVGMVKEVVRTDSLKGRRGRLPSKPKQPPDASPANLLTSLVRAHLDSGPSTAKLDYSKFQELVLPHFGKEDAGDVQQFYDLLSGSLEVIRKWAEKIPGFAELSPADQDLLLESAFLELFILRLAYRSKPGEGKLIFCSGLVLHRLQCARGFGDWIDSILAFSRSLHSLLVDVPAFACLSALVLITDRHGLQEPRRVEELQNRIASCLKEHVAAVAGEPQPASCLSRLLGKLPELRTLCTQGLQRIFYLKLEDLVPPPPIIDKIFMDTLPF

In the case of `CCN(CC)CCCNC(=O)c1cc2cc(Nc3nccc(-c4sc(NC)nc4C)n3)ccc2[nH]1`, the Activity [1] is reported as “Tde”, the Activity [2] is reported as 2.25% and the IC50 [3] is reported as 1.05 µM. The Activity [4] was “inactive”, the Activity [5] was “Active” and the IC50 [6] was 1.99 µM. For the same molecule, the Activity [7] was “Non-Toxic”, the Activity [8] was 0.06 g and the IC50 [9] was 6.34 µM. The IC50 [10] was 38.3 µM, the Activity [11] was 5.29% and the Activity [12] was “Active”. The inhibition [13] was “inactive”, the IC50 [14] was 2.12 µM and the Activity [15] was 2.5%. It also gave an Activity [16] of 5.16%, an Activity [17] of 2.36% and an inhibition in vivo at 10 mg/kg [18] of 100%. For the same molecule, the Activity [19] was “inactive”, the inhibition [20] was “inactive” and the IC50 [21] was 47.2 µM. For the same molecule, the Activity [22] was “inactive”.
